Entries after “also recorded” stand apart in the source; their conditions may differ.
Assays:
A375R melanoma cells [1] = assay: Cell viability (MTT) of Vemurafenib-resistant melanoma cells; assay type: cell-based, human; conditions: six days, in presence of PLX4032
Protocol: (§1) Cell viability was assessed using MTT (Sigma-Aldrich) and ATP-lite (Perkin Elmer) assays according to the manufacture instructions. In assays evaluating resistance to PLX4032, PLX4032-treated cells were cultured for six days before analysis. Viability was measured using cells were performed in 96-well plates and cells incubated for 24 h at 37° C. Next, cells were incubated in MTT solution (Sigma-Aldrich) and processed according to the manufacturer instructions and analyzed using Stat Fax 2100 ELISA reader.

[2] = tested on: U2OS human osteosarcoma cells; assay: Cell viability (MTT) of osteosarcoma cells; assay type: cell-based; conditions: concentrations similar to A375R
Protocol: as §1

[3] = tested on: human squamous skin cancer cells (SCC1); assay: Colony formation of squamous cell carcinoma cells; assay type: cell-based
Protocol: Colony formation assay: Cells were suspended in DMEM or RPMI medium and seeded at a density of 1000 cells/well. Plates were maintained at 37° C. for six days, fixed overnight with 4% paraformaldehyde (PFA), stained with 0.05% crystal violet.

[4] = tested on: mouse melanoma B16F10 cancer cells; assay: Cell viability (MTT) of B16F10 melanoma cells; assay type: cell-based; conditions: three days treatment
Protocol: as §1

human A375R melanoma = assay: Colony formation of PLX-resistant melanoma cells; assay type: cell-based; conditions: added at cell seeding, colonies visualized 8 d after seeding
human U2OS sarcoma cells = assay: Colony formation of osteosarcoma cells; assay type: cell-based; conditions: added at cell seeding, colonies visualized 9 d after seeding
A375R melanoma cells [5] = assay: Cell death by FACS analysis (sub-G1); assay type: cell-based, human; conditions: 3 h exposure, 20 uM
RNF4 = biological target: T1, RNF4 (Homo sapiens, UniProt P78317); assay: RNF4 protein level by western blot after R4VP treatment; assay type: cell-based; design: RNF4 degradation in the presence of proteasome inhibitor MG132: dose or concentration left out as unconfirmed
T1 construct: endogenous in cells; host or cells: A375 / A375R human melanoma cells
T1 sequence (P78317 1-190): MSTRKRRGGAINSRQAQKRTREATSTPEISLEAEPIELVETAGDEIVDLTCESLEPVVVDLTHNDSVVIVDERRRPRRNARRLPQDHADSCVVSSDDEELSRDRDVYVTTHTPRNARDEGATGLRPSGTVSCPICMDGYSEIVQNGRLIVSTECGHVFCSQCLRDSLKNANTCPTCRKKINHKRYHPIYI
Protocol: Protein stability was determined in steady state and dynamic CHX chase experiments as described (Trausch-Azar et al. 2015). Proteins resolved over SDS-PAGE, using the indicated antibodies, and visualized using chemiluminescence (Image-Quan LAS4000). Where indicated cells were treated for the indicated times and concentrations with R4VP or related compounds.

[6] = tested on: B16F10 murine melanoma cells; assay: Colony formation of B16F10 melanoma cells; assay type: cell-based, mouse; conditions: nine days
human Myeloma U266 cells = assay: Cell viability (MTT) of multiple myeloma cells; assay type: cell-based; conditions: concentrations similar to A375R
Protocol: as §1

Cc1ncsc1-c1ccc(CNC(=O)[C@H]2C[C@@H](O)CN2C(=O)[C@H](NC(=O)CCC(=O)NCCCCOc2ccc(Oc3ccc(N(Cc4ccccc4)C(=O)CCl)cc3)cc2)C(C)(C)C)cc1 [R4VP, N1-(4-(4-(4-(N-benzyl-2-chloroacetamido)phenoxy)phenoxy)butyl)-N4-((R)-1-((2R,4R)-4-hydroxy-2-((4-(4-methylthiazol-5-yl)benzyl)carbamoyl)pyrrolidin-1-yl)-3,3-dimethyl-1-oxobutan-2-yl)succinamide]
concentration inhibiting growth and proliferation (A375R melanoma cells [1]; A375R): ≥ 10 µM | effect on growth and proliferation of A375R cells (A375R melanoma cells [1]): inhibits A375R proliferation | effect on proliferation of U2OS cells [2]: growth inhibitory effects were also observed; also recorded: inhibits proliferation of U2OS human osteosarcoma cells in a dose dependent manner | effect on colony formation of SCC1 cells ([3]; 1, 3 and 5 μM): inhibiting colony formation | IC50 ([3]; Homo sapiens, squamous cell carcinoma cell line, printed HCC1): < 1000 nM | effect on proliferation/viability of B16F10 cells [4]: inhibits proliferation and colony formation | effect on proliferation/viability of B16F10 cells ([4]; listed as RNF4-VHL-PROTAC): inhibits cell proliferation and colony formation | effect on colony formation of A375R cells (human A375R melanoma): inhibited colony formation of melanoma and osteosarcoma cells in a dose dependent manner; also recorded: inhibits colony formation of human A375R melanoma | effect on colony formation of U2OS cells (human U2OS sarcoma cells): inhibited colony formation of melanoma and osteosarcoma cells in a dose dependent manner; also recorded: inhibits colony formation of human U2OS sarcoma cells | cell death, accumulation of cells in sub-G1 (A375R melanoma cells [5]): extensive cell death | cell death, accumulation of cells in sub-G1 (A375R melanoma cells [5]; listed as RNF4-VHL-PROTAC): results in cell-death | RNF4 degradation in the presence of proteasome inhibitor MG132 (RNF4; A375R cells, MG132 as printed): can be inhibited by the proteasome inhibitor MG132; also recorded: restored to levels similar to control treated cells | RNF4 protein level (exogenous HA-RNF4 or endogenous) (RNF4; A375R cells, three hours treatment, western blot): reduced the level of exogenous or endogenous RNF4 protein; also recorded: induced degradation of RNF4 | endogenous RNF4 level, dose dependence (RNF4; A375 melanoma cells): reduces the level of endogenous RNF4 in A375 melanoma cells in a dose dependent manner | effect on colony formation of B16F10 cells [6]: inhibits proliferation and colony formation | effect on colony formation of B16F10 cells ([6]; listed as RNF4-VHL-PROTAC): inhibits cell proliferation and colony formation | effect on proliferation of U266 cells (human Myeloma U266 cells): growth inhibitory effects were also observed; also recorded: inhibits proliferation of human Myeloma U266cells

Source: patent US12630546B2, “RNF4 targeting compounds and uses thereof” (TECHNION RESEARCH & DEVELOPMENT FOUNDATION LIMITED, priority 2021, dated 2026)
